{"source": "patent US5496841A", "about": "“Anti-neoplastic, anti-viral and ribonucleotide reductase activity affecting pharmaceutical compositions and method of treatment” (University of Florida Research Foundation, Inc., priority 1995, dated 1996)", "key": {"[1]": {"assay": "Iron formation (binding) constant", "format": "physicochemical", "settings": "estimated iron binding constant", "source_text": "When the compounds were ranked according to their estimated iron binding constants (Table I), the order generally paralleled both the anti-leukemicand anti-herpetic activities of the compounds. […] Furthermore, the effects of the ligands could be prevented by addition of ferric chloride, supporting the idea that iron chelation is the source of activity."}, "[2]": {"test_system": "Murine L1210 leukemia cells", "assay": "L1210 leukemia cell growth inhibition", "format": "cell-based", "settings": "for anti-leukemic activity (in words): L1210; for IC50: L1210, 48 hr, read-out: Antileukemic Activity (IC50, 48 hr); for % Control, L1210 growth: Compound II 10 μM"}, "[3]": {"test_system": "herpes simplex I, KOS strain", "assay": "Inhibition of herpes simplex virus replication in CV-1 cells (plaque assay)", "format": "cell-based", "settings": "for anti-herpetic activity (in words): herpes simplex I; for % Control, Herpes replication: Compound II 100 μM"}, "[4]": {"test_system": "vesicular stomatitis virus", "assay": "microbe, parasite or virus in culture", "format": "cell-based"}, "[5]": {"settings": "prior art statement; cited from earlier work"}, "Plasmodium falciparum": {"test_system": "Plasmodium falciparum", "assay": "In vitro growth of Plasmodium falciparum (candle jar technique)", "format": "cell-based", "experimental": "The anti-malarial activity of the compounds listed in Table IV were determined using the method of Scheibel et al, Mol. Pharmacol., 20, pp. 218-223 (1981).\nIn this study, Plasmodium falciparum were grown in petri dishes using the conventional candle jar technique (Jensen, J. B., and W. Trager. Plasmodium falciparum in culture; use of outdated erythrocytes and description of the candle jar method. J. Parasitol. Vol. 63, pp. 883-886 (1977)). Parasites were grown for 24 hours in 1.5 ml petri dishes in a candle jar before exposure to the chelators of interest. The Plasmodium falciparum were next exposed to various concentrations of the ligands, and ED50 values determined after two and three days of exposure."}, "[6]": {"assay": "Partition between n-octanol and phosphate buffered saline", "format": "physicochemical", "settings": "PBS pH 7.40 / n-octanol; for logD at 12 h: pH 7.4, 27° C., read-out: Conc. n-Octanol / Conc. PBS (partition coefficient) (converted)", "experimental": "The partition equilibrium values for octanol and phosphate buffered saline were determined for certain of the test compounds. The compounds were added in nitrogen saturated methanol at the same concentration to three acid washed test tubes and the alcohol evaporated leaving a thin film of compounds coating the interior of the tube. Next, 5 ml each of degassed phosphate buffered saline (pH 7.4) and n-octanol were added. The tubes were sealed with Teflon caps under argon and rotated at 6 rpm at 27° C. for 12 hours. […] Absorbance values were compared to Beer's Lambert's plots generated for each compound."}, "CV-1 monkey kidney cells": {"test_system": "CV-1 monkey kidney cells", "assay": "Toxicity to resting monkey kidney cell monolayers", "format": "cell-based", "settings": "100 μM, 24 hours"}, "L1210 cells": {"test_system": "L1210 cells", "settings": "Porter et al, read-out: 50% growth-inhibitory dose; cited from earlier work"}, "[7]": {"test_system": "herpes virus (same herpes strain)", "settings": "vero monkey kidney cell line, DeClercq, read-out: IC50 anti-herpetic; cited from earlier work"}, "[8]": {"settings": "CV-1, read-out: Antiviral Activity Herpes simplex I (IC50)"}, "[9]": {"settings": "Vesicular stomatitis virus, CV-1, read-out: Antiviral Activity Vesicular stomatitis (IC50)"}, "[10]": {"settings": "48 h, exposure for 2 days, read-out: Concentration required to reduce in vitro growth of P. falciparum 50% (ED50), Day 2"}, "[11]": {"settings": "72 h, exposure for 3 days, read-out: Concentration required to reduce in vitro growth of P. falciparum 50% (ED50), Day 3"}, "[12]": {"settings": "CV-1 cells, read-out: Antiviral Activity Herpes simplex I (IC50)"}}, "note": "Read-outs that look alike come from different tables or passages of the source.", "data": [{"smiles": "NCCCCN(CCCN)Cc1ccccc1", "values": [{"measurement": "Formation Constant", "setting": "[1]", "result": 0, "unit": "moles/1"}, {"measurement": "anti-leukemic activity (in words)", "setting": "[2]", "result": "virtually inactive"}, {"measurement": "IC50", "setting": "[2]; Mus musculus", "result": 4000, "unit": "µM"}, {"measurement": "IC50", "setting": "[3]; [8]", "result": 1000, "unit": "µM"}, {"measurement": "anti-herpetic activity (in words)", "setting": "[3]", "result": "virtually inactive"}, {"measurement": "IC50", "setting": "[4]; [9]", "result": 1000, "unit": "µM"}]}, {"smiles": "C[C@H]1OC(c2ccccc2O)=N[C@@H]1C(=O)N(CCCCNC(=O)c1cccc(O)c1O)CCCNC(=O)c1cccc(O)c1O", "note": "(relative stereo) [Parabactin, N-[3-(2,3-dihydroxybenzamido)propyl]-N-[4-(2,3-dihydroxybenzamino)-butyryl]-2-(2-hydroxyphenyl)trans-5-methyl-oxazoline-4-carboxamide]", "values": [{"measurement": "iron formation constant of 1:1 metal complex", "setting": "[5]", "result": "~10^48 moles/l"}, {"measurement": "IC50", "setting": "[2]; Mus musculus", "result": 2, "unit": "µM"}, {"measurement": "times more active as an antineoplastic than DHBA", "setting": "[2]; ratio vs DHBA", "result": "10^3"}, {"measurement": "IC50", "setting": "Plasmodium falciparum; [10]", "result": 2.6, "unit": "µM"}, {"measurement": "IC50", "setting": "Plasmodium falciparum; [11]", "result": 2.3, "unit": "µM"}, {"measurement": "Gt ° (G° transfer)", "setting": "[6]", "result": -2.06, "unit": "K cal M-I"}, {"measurement": "logD at 12 h", "setting": "[6]", "result": 1.51}, {"measurement": "IC50", "setting": "[3]; [12]", "result": 0.4, "unit": "µM"}]}, {"smiles": "C[C@H]1OC(c2cccc(O)c2O)=N[C@@H]1C(=O)NCCCN(CCCNC(=O)c1cccc(O)c1O)C(=O)[C@H]1N=C(c2cccc(O)c2O)O[C@@H]1C", "note": "(relative stereo) [Vibrobactin, N-[3-(2,3-(dihydrozybenzamido)propyl]-1,3-bis(2,3-dihydroxyphenyl)-trans-5-methyl-2-oxazoline-4-carbonamido]propane]", "values": [{"measurement": "IC50", "setting": "[2]; Mus musculus", "result": 2, "unit": "µM"}, {"measurement": "IC50", "setting": "Plasmodium falciparum; [10]", "result": 4.5, "unit": "µM"}, {"measurement": "IC50", "setting": "Plasmodium falciparum; [11]", "result": 1.8, "unit": "µM"}]}, {"smiles": "O=C(NCCCCNCCCNC(=O)c1cccc(O)c1O)c1cccc(O)c1O", "note": "[Compound II, N^1,N^8-bis(2,3-dihydroxybenzoyl)-spermidine]", "values": [{"measurement": "growth of resting cell monolayers after treatment and replacement in drug-free media", "setting": "CV-1 monkey kidney cells", "result": "identical to that of untreated cells"}, {"measurement": "% Control, L1210 growth", "setting": "[2]; FeCl3 0 μM", "result": 23, "unit": "% Control"}, {"measurement": "% Control, L1210 growth", "setting": "[2]; FeCl3 4 μM", "result": 64, "unit": "% Control"}, {"measurement": "% Control, L1210 growth", "setting": "[2]; FeCl3 8 μM", "result": 96, "unit": "% Control"}, {"measurement": "% Control, L1210 growth", "setting": "[2]; FeCl3 12 μM", "result": 104, "unit": "% Control"}, {"measurement": "IC50", "setting": "[2]; Mus musculus", "result": 7, "unit": "µM"}, {"measurement": "anti-leukemic activity on inclusion of exogenous iron in the incubation media", "setting": "[2]; ferric chloride added", "result": "fully attenuated"}, {"measurement": "IC50", "setting": "L1210 cells", "result": 10, "unit": "µM"}, {"measurement": "IC50", "setting": "Plasmodium falciparum; [10]", "result": 4.5, "unit": "µM"}, {"measurement": "IC50", "setting": "Plasmodium falciparum; [11]", "result": 3.7, "unit": "µM"}, {"measurement": "Gt ° (G° transfer)", "setting": "[6]", "result": -0.04, "unit": "K cal M-I"}, {"measurement": "logD at 12 h", "setting": "[6]", "result": -0.0132}, {"measurement": "IC50", "setting": "[3]; [12]", "result": 32, "unit": "µM"}, {"measurement": "% Control, Herpes replication", "setting": "[3]; FeCl3 0 μM", "result": 0, "unit": "% Control"}, {"measurement": "% Control, Herpes replication", "setting": "[3]; FeCl3 9 μM", "result": 20, "unit": "% Control"}, {"measurement": "% Control, Herpes replication", "setting": "[3]; FeCl3 19 μM", "result": 53, "unit": "% Control"}, {"measurement": "% Control, Herpes replication", "setting": "[3]; FeCl3 38 μM", "result": 138, "unit": "% Control"}, {"measurement": "anti-herpetic activity on inclusion of exogenous iron in the incubation media", "setting": "[3]; ferric chloride added, herpes replication assay", "result": "fully attenuated"}, {"measurement": "IC50", "setting": "[4]; [9]", "result": 1000, "unit": "µM"}]}, {"smiles": "O=C(O)c1cccc(O)c1O", "note": "[DHBA, 2,3-dihydroxybenzoic acid]", "values": [{"measurement": "anti-leukemic activity (in words)", "setting": "[2]", "result": "minimal activity"}, {"measurement": "IC50", "setting": "[2]; Mus musculus", "result": 2800, "unit": "µM"}, {"measurement": "Gt ° (G° transfer)", "setting": "[6]", "result": "+1.57 K cal M-I"}, {"measurement": "logD at 12 h", "setting": "[6]", "result": -1.15}, {"measurement": "IC50", "setting": "[3]; [8]", "result": 1000, "unit": "µM"}, {"measurement": "anti-herpetic activity (in words)", "setting": "[3]", "result": "minimal activity"}, {"measurement": "IC50", "setting": "[4]; [9]", "result": 1000, "unit": "µM"}]}, {"smiles": "Nc1nc(=O)n([C@@H]2O[C@H](CO)[C@@H](O)[C@@H]2F)cc1I", "note": "[FIAC, 2-fluoro-5-iodo-I-B-D-arabinofuranosylcytosine]", "values": [{"measurement": "IC50", "setting": "[7]", "result": 0.6, "unit": "µM"}]}, {"smiles": "O=C(NCCCCN(CCCNC(=O)c1cccc(O)c1O)C(=O)CCCNC(=O)c1cccc(O)c1O)c1cccc(O)c1O", "note": "[GABA, N^1,N^8-bis(2,3-dihydroxybenzoyl)-N^4-(4-[2,3-dihydrozybenzamido]-butyryl) spermidine]", "values": [{"measurement": "IC50", "setting": "[2]; Mus musculus", "result": 2, "unit": "µM"}, {"measurement": "IC50", "setting": "Plasmodium falciparum; [10]", "result": 5.1, "unit": "µM"}, {"measurement": "IC50", "setting": "Plasmodium falciparum; [11]", "result": 4.3, "unit": "µM"}, {"measurement": "IC50", "setting": "[3]; [12]", "result": 18, "unit": "µM"}, {"measurement": "IC50", "setting": "[4]; [9]", "result": 1000, "unit": "µM"}]}, {"smiles": "C[C@@H](O)[C@H](N)C(=O)N(CCCCNC(=O)c1cccc(O)c1O)CCCNC(=O)c1cccc(O)c1O", "note": "[N^1,N^8-bis(2,3-dihydroxybenzoyl)-N^4-threonyl-spermidine]", "values": [{"measurement": "IC50", "setting": "[2]", "result": 14, "unit": "µM"}, {"measurement": "IC50", "setting": "[3]; [12]", "result": 55, "unit": "µM"}, {"measurement": "IC50", "setting": "[4]; estimated by methyl cellulose disk overlay assay, read-out: Antiviral Activity Vesicular stomatitis (IC50)", "result": 1000, "unit": "µM"}]}, {"smiles": "Nc1nc2c(ncn2COCCO)c(=O)[nH]1", "note": "[acyclovir]", "values": [{"measurement": "IC50", "setting": "[7]", "result": 40, "unit": "µM"}]}]}
